Measured values from patent publication US20210299079A1, “MONOMETHYL FUMARATE-CARRIER CONJUGATES AND METHODS OF THEIR USE” (Flagship Pioneering Innovations V, Inc., priority 2018, published 2021).

How the values were obtained:
[1] = system: experimental autoimmune encephalomyelitis (EAE); experiment: In Vivo EAE Model of Multiple Sclerosis; design: species or system C57BL/6J mice
Description: For experimental autoimmune encephalomyelitis (EAE) study, 8- to 11-week-old C57BL/6J mice were anesthetized and subcutaneously injected with […] and […]. Pertussis toxin (200 ng/mouse) was applied i.p. on days 0. Daily clinical evaluation was performed via a 5-point scale, and the clinical progression was observed over 28 days (FIG. 2A). […] At the end of the study, flow cytometry analysis was performed on the spleen (n=8 per group). […] Statistical analysis was performed with GraphPad Prism (GraphPad Software). Unpaired t test was used to assess significance between the control (Vehicle) and each treatment group. For experimental autoimmune encephalomyelitis (EAE) studies, 8- to 11-week old C57BL/6J mice were anesthetized and subcutaneously injected with […] and […]. Pertussis toxin (200 ng/mouse) was applied intraperitoneally on day 0. Daily clinical evaluation as performed using a 5-point scale and the clinical progression was observed over 28 days (FIGS. 2C and 2D).

MIP-1α = experiment: Neutrophil Chemokine Production Assay: MIP-1α; assay type: cell-based; settings: human neutrophils, 12 h
Procedure, shortened: (§1)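 Neutrophils were isolated from human blood by Histopaque-1077 separation and RBC lysis, then plated at 2.0×10^5 cells/well in RPMI complete. Cells were stimulated with LPS (10 μL of a 2 μg/mL solution) for 12 h at 37 °C. Supernatant chemokines were measured by Luminex multiplex, averaging three data points from two donors.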

MIP-1β = experiment: Neutrophil Chemokine Production Assay: MIP-1β; assay type: cell-based; settings: human neutrophils, 12 h
Procedure, shortened: as §1

Caco-2 colonocytes = experiment: Human Caco-2 Barrier Integrity Assay, Study 1; assay type: cell-based; settings: Caco-2, + cytokines (TNFα, IFNγ, IL-1β), 48 hours
Description: Caco-2 colonocytes were maintained at 37° C. and 5% CO2 in Dulbecco's Modified Eagle Medium (DMEM) and supplemented with 10% FBS, 1% NEAA, 1% penicillin-streptomycin. At 70-80% confluency, cells were trypsinized and seeded in 0.4 cm^2 transwell collagen I coated membranes with supplemented DMEM in both apical and basolateral compartments. […] After 48 hours, TEER readings were taken again and viability was measured by CellTiter 96® AQueous One Solution Cell Proliferation Assay (Promega).

TNFα = experiment: Cytokine Release from Human PBMCs: TNFα; assay type: cell-based; settings: LPS, 24 hours, Concentration 100 μM
Description: (§2) Human donor blood (8 mL) was collected in sodium citrate CPT tubes and centrifuged at 1,600×g for 20 minutes at room temperature. Buffy coat containing PBMCs was collected and transferred to a 50 mL conical tube containing 30 mL of RPMI-1640 medium at room temperature (supplemented with penicillin-streptomycin). PBMCs samples were centrifuged at 400×g for 10 minutes at 10° C. The pelleted PBMCs were washed twice in 10 ml of RPMI-1640 medium (supplemented with penicillin-streptomycin), then resuspended in RPMI-1640 medium (supplemented with penicillin-streptomycin, fetal bovine serum, and L-Glutamine). PBMCs were filtered through a 70 micron mesh to remove any cellular debris. […] PBMCs in a 96-well plate were rested for 30 minutes in a 37° C., 5% CO2 incubator, then subsequently treated with 10 μI of indicated compound. After 2 hours 10 μL of LPS (0111:64) 1 mg/mL was added to test wells. After 24 hours of incubation at 37° C., 5% CO2, 100 μL of cell supernatant was collected and transferred to a 96-well plate (non-tissue treated, flat bottom). The plate was centrifuged at 350×g for 5 minutes at room temperature, and then the clear supernatant transferred to a new 96-well plate (non-tissue treated, flat bottom). The remaining cells were tested for viability using CellTiter-Glo® Luminescent Cell Viability Assay (Promega). The supernatant was analyzed for TNFα, IL-6 and IL-1β (kit […] Systems), using Luminex Immunoassay Technology (MAGPIX System).

IL-6 = experiment: Cytokine Release from Human PBMCs: IL-6; assay type: cell-based; settings: LPS, 24 hours, Concentration 100 μM
Description: as §2

IL-1β = experiment: Cytokine Release from Human PBMCs: IL-1β; assay type: cell-based; settings: LPS, 24 hours, Concentration 100 μM
Description: as §2

Question: For CCC(=O)O [propionate], which “EAE score (5-point scale) compared to control (vehicle only)” value ([1]; Study 1, 200 mM in drinking water, 28 days) is on record?
Answer: Its value is “lower EAE scores”.

Question: And the “TH17 cell (CD3+)/regulatory T cells (CD3+, Foxp3+) ratio” value ([1]; Study 1, spleen flow cytometry at end of study, 200 mM in drinking water, vs vehicle, P<0.05)?
Answer: The value was “significantly reduced”.

Question: And the “% MIP-1α (Vehicle + LPS = 100%)” value (MIP-1α; Conc. 500.0 μM)?
Answer: Its value is “+++ (+++ = <50% Vehicle)”.

Question: And the “% MIP-1α (Vehicle + LPS = 100%)” value (MIP-1α; Conc. 1000.0 μM)?
Answer: The value was “+++ (+++ = <50% Vehicle)”.

Question: And the “% MIP-1α (Vehicle + LPS = 100%)” value (MIP-1α; Conc. 3000.0 μM)?
Answer: Its value is “+++ (+++ = <50% Vehicle)”.

Question: What about the “% MIP-1β (DMSO + LPS = 100%)” value (MIP-1β; Conc. 500.0 μM) of the same compound?
Answer: Its value is “+++ (+++ = <50% Vehicle)”.

Question: What about the “% MIP-1β (DMSO + LPS = 100%)” value (MIP-1β; Conc. 1000.0 μM) of the same compound?
Answer: Its value is “+++ (+++ = <50% Vehicle)”.

Question: And the “% MIP-1β (DMSO + LPS = 100%)” value (MIP-1β; Conc. 3000.0 μM)?
Answer: Its value is “+++ (+++ = <50% Vehicle)”.

Question: And the “% Change in TEER from DMSO” value (Caco-2 colonocytes; 1 mM)?
Answer: Its value is “+ (125% > <150%: +)”.

Question: And the “% Change in TEER from DMSO” value (Caco-2 colonocytes; 3 mM)?
Answer: Its value is “++ (150% > <200%: ++)”.

Question: And the “TNFα % of DMSO control” value (TNFα)?
Answer: The value was “+ ((+) 50% > <90% DMSO)”.

Question: And the “IL6 % DMSO control” value (IL-6)?
Answer: Its value is “+ ((+) 50% > <90% DMSO)”.

Question: And the “IL1β % DMSO control” value (IL-1β)?
Answer: Its value is “+ ((+) 50% > <90% DMSO)”.
